Key:
human Nav1.7 (hSCN9A) = biological target: T1, human Nav1.7 (hSCN9A) (Homo sapiens, UniProt Q15858); assay: Electrophysiology assay for Navs, whole cell patch clamp, Nav1.7; format: cell-based; details: Kinact, dissociation constant for the inactivated state, read-out: activities (Ki) against Nav1.7
T1 construct: expressed in transfected cells; host or cells: CHO
Method: (§1) Electrophysiology Assay for Navs
(§2) Whole cell patch clamp recording is used to assess the efficacy or selectivity of Na channel blocker on human Nav1.3 (hSCN3A) expressing HEK293 cells or human Nav1.7 (hSCN9A) expressing CHO cells. Human Nav1.3 expressing HEK293 cells are grown in growth media which comprised: DMEM, 10% heat-inactivated FBS (Hyclone Laboratories Inc), 100 microgram/mL Penicillin/100 U/mL Streptomycin, 150 microgram/mL Zeocin, 3 microgram/mL Geneticin. Human Nav1.7 expressing CHO cells are grown in growth media which comprised: HAM/F-12, 9% heat-inactivated FBS (Hyclone Laboratories Inc), 100 microgram/mL Penicillin/100 U/mL Streptomycin, 100 microgram/mL Hygromycin.
(§3) Na channel expressing cells are dissociated by 0.05% Trypsine-EDTA, and then seeded on cover glass for 24-48 hr. […]
(§4) The normalized steady-state inactivation curve is constructed using 2 sec (for vehicle) or 60 sec (for drugs) conditioning pulse to different potentials followed immediately by the test pulse to −10 mV. […] The affinity of drugs to resting state of Na channels (Kresting or Kr) is assessed by 30 msec test pulse from a negative holding potential of −120 or −130 mV, where virtually all channels are in the resting state. Kr value is calculated by a conventional 1:1 binding model: Kresting(Kr)={[drug]Imax,drug/(Imax,control−Imax,drug)} […]

[1] = system: CFA-induced thermal hyperalgesia in rats; assay: Complete Freund's Adjuvant (CFA)-induced thermal hyperalgesia in rats; format: in vivo, Sprague-Dawley rats; details: 30 mg/kg per os
Method: Complete Freund's Adjuvant (CFA)-Induced Thermal Hyperalgesia in Rats
Male Sprague-Dawley rats at 6 weeks old are purchased from Charles River Japan Inc., and housed in groups of two per cage under a 12-h light/dark cycle (lights on at 07:00) with access to food and water ad libitum. CFA-induced thermal hyperalgesia is assessed using the plantar test apparatus (Ugo Basile) as described by Hargreaves K et al. (Pain 1988, 32: 77-88). The animals are placed in an apparatus consisting of individual testing box on an elevated glass table and allowed to acclimate for at least 10 minutes. Following the habituation, a mobile radiant heat source is located under the table and heat stimulation is applied to the plantar surface of the right hind paw. The latency to remove its hind paw is defined as paw withdrawal latency (PWL) in sec. The cut-off point is set at 30 seconds to prevent tissue damage. CFA is prepared at a concentration of 2-3 mg/mL of Mycobacterium tuberculosis H37 RA in liquid paraffin. After disinfections with 70% ethanol, the rats are injected intraplantarly with 100 microL of CFA (200-300 microgram) into the right hind paw. Two days after CFA injection, PWL is measured in the same manner as mentioned above. […] The PWL is measured at the appropriated time after compound administration. […]

human Nav1.3 (hSCN3A) = biological target: T2, human Nav1.3 (hSCN3A) (Homo sapiens, UniProt Q9NY46); assay: Electrophysiology assay for Navs, whole cell patch clamp, Nav1.3; format: cell-based; details: Kinact, dissociation constant for the inactivated state, read-out: activities (Ki) against Nav1.3
T2 construct: expressed in transfected cells; host or cells: HEK293
Method: as §1, §2, §3, §4

[2] = system: CFA-induced weight bearing deficit in rats; assay: CFA-induced weight bearing deficit in rats; format: in vivo, Sprague-Dawley rats; details: 10 mg/kg per os
Method: CFA-Induced Weight Bearing Deficit in Rats
Male Sprague-Dawley rats at 7 weeks old are purchased from Charles River Japan Inc., and housed in groups of two per cage under a 12-h light/dark cycle (lights on at 07:00) with access to food and water ad libitum. CFA-induced weight bearing (WB) deficit is assessed using Incapacitance tester (Linton Instrumentation). The animals are habituated to a plastic case that comes with Incapacitance tester before the day of CFA injection. On the day of CFA injection, the weight distribution of each hind paw is measured 3 times per rat using the tester, and the difference of weight distribution, weight on the right (injected) paw minus weight on left (non-injected) paw, is defined as WB deficit value in g. The duration of the each measurement is adjusted to 3 seconds. CFA is prepared at a concentration of 2-3 mg/mL of Mycobacterium tuberculosis H37 RA in liquid paraffin. After disinfections with 70% ethanol, the rats are injected intraplantarly with 100 microL of CFA (200-300 microgram) into the right hind paw. Two days after CFA injection, the weight distribution of each hind paw is measured and the WB deficit value is calculated in the same manner as mentioned above. […] The weight distribution of each hind paw is measured at the appropriated time after compound administration, and the WB deficit value is calculated as previously explained.

T2 sequence (Q9NY46 whole entry): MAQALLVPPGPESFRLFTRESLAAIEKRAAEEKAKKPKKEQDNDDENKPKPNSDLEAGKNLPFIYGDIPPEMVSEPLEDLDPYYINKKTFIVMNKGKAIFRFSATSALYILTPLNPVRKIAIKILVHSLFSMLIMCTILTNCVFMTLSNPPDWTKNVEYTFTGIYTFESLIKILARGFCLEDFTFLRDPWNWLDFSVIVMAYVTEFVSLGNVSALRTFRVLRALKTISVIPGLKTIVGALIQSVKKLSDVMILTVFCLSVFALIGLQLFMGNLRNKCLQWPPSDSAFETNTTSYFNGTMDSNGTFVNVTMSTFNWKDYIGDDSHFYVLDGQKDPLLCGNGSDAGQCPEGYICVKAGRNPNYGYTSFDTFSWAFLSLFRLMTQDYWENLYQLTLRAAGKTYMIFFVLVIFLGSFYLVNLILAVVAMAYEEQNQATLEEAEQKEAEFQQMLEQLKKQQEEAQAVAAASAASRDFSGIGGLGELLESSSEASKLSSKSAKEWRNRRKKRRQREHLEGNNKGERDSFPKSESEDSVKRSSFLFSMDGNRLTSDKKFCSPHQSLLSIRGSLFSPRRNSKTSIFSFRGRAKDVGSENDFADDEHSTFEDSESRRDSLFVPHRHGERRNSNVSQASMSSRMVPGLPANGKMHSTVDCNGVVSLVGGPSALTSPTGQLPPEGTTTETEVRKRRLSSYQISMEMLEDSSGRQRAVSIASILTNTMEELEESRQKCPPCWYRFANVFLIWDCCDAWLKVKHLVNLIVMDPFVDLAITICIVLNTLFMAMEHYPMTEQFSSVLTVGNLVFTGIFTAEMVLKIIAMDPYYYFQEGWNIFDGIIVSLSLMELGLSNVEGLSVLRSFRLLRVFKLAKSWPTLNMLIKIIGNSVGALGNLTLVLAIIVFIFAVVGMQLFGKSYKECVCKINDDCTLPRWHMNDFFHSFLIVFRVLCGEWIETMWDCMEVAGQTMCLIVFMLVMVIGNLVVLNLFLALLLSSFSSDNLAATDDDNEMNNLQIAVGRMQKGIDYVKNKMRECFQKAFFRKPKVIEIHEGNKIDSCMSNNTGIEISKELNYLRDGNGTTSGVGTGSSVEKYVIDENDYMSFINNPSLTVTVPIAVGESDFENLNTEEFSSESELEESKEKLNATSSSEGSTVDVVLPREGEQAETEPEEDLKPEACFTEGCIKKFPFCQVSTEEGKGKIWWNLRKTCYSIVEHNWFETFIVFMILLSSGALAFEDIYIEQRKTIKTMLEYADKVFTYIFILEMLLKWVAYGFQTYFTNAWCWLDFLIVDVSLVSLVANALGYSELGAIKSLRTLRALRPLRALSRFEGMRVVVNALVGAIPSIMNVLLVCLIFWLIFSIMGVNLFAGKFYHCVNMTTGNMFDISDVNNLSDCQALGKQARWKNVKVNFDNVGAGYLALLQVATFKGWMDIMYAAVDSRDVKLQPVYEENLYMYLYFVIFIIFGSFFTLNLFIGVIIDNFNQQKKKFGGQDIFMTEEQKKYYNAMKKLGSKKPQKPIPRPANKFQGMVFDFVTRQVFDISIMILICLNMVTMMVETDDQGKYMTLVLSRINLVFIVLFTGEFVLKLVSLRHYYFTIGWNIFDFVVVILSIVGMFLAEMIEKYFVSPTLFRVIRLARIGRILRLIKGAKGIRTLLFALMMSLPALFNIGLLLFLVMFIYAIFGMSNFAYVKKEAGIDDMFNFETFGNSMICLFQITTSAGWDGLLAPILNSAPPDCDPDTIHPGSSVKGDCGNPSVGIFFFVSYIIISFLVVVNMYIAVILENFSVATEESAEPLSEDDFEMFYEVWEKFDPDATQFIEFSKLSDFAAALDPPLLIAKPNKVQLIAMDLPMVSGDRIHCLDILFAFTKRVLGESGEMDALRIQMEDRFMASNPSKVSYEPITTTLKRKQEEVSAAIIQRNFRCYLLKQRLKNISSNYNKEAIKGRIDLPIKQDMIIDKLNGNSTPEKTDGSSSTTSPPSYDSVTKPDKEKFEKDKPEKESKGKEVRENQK
T1 sequence (Q15858 whole entry): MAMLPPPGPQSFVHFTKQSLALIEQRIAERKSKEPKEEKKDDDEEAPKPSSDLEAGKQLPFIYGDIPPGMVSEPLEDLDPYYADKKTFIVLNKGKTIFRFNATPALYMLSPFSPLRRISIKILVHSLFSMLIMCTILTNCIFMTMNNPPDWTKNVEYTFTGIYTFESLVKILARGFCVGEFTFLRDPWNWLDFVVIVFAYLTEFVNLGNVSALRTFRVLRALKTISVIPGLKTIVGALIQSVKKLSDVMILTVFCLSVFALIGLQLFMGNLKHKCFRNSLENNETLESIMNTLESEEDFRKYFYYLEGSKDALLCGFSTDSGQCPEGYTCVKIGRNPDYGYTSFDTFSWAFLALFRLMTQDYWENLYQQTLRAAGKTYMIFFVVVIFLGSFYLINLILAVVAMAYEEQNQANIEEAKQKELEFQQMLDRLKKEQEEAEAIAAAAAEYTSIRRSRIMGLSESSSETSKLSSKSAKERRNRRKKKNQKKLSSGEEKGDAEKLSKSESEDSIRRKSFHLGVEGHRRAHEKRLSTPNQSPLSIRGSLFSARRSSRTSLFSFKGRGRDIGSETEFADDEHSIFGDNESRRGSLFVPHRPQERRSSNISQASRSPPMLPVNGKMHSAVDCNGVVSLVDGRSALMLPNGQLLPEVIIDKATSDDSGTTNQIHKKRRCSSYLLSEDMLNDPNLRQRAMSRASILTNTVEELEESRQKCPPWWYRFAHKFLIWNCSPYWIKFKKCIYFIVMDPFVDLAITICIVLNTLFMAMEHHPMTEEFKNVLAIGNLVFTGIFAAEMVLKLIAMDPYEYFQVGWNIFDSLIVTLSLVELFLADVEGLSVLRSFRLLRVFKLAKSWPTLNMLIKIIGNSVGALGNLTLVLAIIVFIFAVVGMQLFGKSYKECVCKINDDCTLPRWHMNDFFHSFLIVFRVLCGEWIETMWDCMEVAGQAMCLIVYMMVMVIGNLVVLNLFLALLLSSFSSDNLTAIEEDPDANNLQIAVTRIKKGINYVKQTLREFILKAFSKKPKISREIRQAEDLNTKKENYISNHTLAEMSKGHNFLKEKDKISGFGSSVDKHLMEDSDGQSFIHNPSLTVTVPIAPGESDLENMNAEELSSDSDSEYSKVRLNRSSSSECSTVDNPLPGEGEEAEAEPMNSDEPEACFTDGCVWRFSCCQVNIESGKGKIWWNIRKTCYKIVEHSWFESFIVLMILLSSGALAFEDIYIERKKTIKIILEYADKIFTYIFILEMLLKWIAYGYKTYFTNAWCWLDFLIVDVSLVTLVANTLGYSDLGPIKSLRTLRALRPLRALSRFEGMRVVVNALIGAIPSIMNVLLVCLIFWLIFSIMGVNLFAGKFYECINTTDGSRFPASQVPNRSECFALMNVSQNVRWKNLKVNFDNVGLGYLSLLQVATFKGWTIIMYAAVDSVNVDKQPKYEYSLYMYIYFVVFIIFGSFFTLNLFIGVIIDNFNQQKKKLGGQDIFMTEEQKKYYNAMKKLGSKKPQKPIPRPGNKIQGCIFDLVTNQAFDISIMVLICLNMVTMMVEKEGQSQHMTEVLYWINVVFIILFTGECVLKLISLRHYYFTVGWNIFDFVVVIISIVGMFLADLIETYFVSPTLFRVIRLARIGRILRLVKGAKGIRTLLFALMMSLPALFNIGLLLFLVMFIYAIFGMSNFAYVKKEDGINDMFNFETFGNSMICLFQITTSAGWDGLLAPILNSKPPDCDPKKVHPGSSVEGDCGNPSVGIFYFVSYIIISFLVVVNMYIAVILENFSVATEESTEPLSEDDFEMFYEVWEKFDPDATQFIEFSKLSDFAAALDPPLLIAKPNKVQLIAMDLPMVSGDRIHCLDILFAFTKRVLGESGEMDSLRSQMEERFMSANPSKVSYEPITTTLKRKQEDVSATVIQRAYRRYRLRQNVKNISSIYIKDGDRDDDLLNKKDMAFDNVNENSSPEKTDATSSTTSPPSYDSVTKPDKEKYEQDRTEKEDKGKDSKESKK

With `CC(=O)Nc1cc(C(=O)NC(C)c2ccc(OCC(F)(F)F)nc2)ccn1` (single isomer, unassigned; (-)) [Example 1, (−)-2-acetamido-N-(1-(6-(2,2,2-trifluoroethoxy)pyridin-3-yl)ethyl)isonicotinamide] the Ki (human Nav1.7 (hSCN9A)) was 1.2 µM, the “activity in CFA-induced thermal hyperalgesia (PWL)” value [1] was “significant activity” and the Ki (human Nav1.3 (hSCN3A)) was 1.5 µM. The “activity in CFA-induced weight bearing deficit” value [2] was “significant activity”.

From patent publication US9302991B2, “Arylamide derivatives as TTX-S blockers” (RaQualia Pharma Inc., priority 2010, dated 2016)
